Columns and labels:
redroot pigweed = experiment: Test Example 4: herbicidal effect by soil treatment (Table 19, symbol N); format: in vivo, redroot pigweed (Amaranthus retroflexus); conditions: amount of applied herbicide 320 g/ha
Procedure, shortened: (§1)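 Three weeks of greenhouse growth at 25° C. to 30° C. followed a uniform surface spray of water-diluted emulsion at a predetermined herbicide amount. Seeds had been sown beforehand under about 1.5 cm of sterilized diluvial soil. Grading followed criteria set out in an earlier test.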

green foxtail [1] = experiment: Test Example 5: herbicidal effect by foliage application, plastic box (Table 20, symbol G); format: in vivo, green foxtail (Setaria viridis); conditions: foliage application, 320 g/ha, three weeks after application
Procedure, shortened: (§2)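 Plants sown in sterilized diluvial soil and grown 14 days in a greenhouse at 25° C to 30° C, then sprayed on the foliage with the compound's emulsion diluted in water to a predetermined herbicide amount. Injury to weeds and crops scored three weeks after application on a visual rating scale.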

Italian ryegrass [2] = experiment: Test Example 4: herbicidal effect by soil treatment (Table 19, symbol K); format: in vivo, Italian ryegrass (Lolium multiflorum); conditions: amount of applied herbicide 320 g/ha
Procedure, shortened: as §1

southern crabgrass [3] = experiment: Test Example 5: herbicidal effect by foliage application, plastic box (Table 20, symbol F); format: in vivo, southern crabgrass (Digitaria ciliaris); conditions: foliage application, 320 g/ha, three weeks after application
Procedure, shortened: as §2

southern crabgrass [4] = experiment: Test Example 4: herbicidal effect by soil treatment (Table 19, symbol F); format: in vivo, southern crabgrass (Digitaria ciliaris); conditions: amount of applied herbicide 320 g/ha
Procedure, shortened: as §1

Italian ryegrass [5] = experiment: Test Example 5: herbicidal effect by foliage application, plastic box (Table 20, symbol K); format: in vivo, Italian ryegrass (Lolium multiflorum); conditions: foliage application, 320 g/ha, three weeks after application
Procedure, shortened: as §2

wild oat [6] = experiment: Test Example 5: herbicidal effect by foliage application, plastic box (Table 20, symbol I); format: in vivo, wild oat (Avena fatua); conditions: foliage application, 320 g/ha, three weeks after application
Procedure, shortened: as §2

lambsquarters [7] = experiment: Test Example 5: herbicidal effect by foliage application, plastic box (Table 20, symbol O); format: in vivo, lambsquarters (Chenopodium album); conditions: foliage application, 320 g/ha, three weeks after application
Procedure, shortened: as §2

oval-leafed pondweed = experiment: Test Example 1: herbicidal activity, application before weed generation under submerged conditions (Table 16, symbol C); format: in vivo, oval-leafed pondweed (Monochoria vaginalis); conditions: amount of applied herbicide 320 g/ha
Procedure, shortened: (§3)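 Alluvial soil was flooded to 4 cm depth, weed seeds were sown mixed and 2.5-leaf rice seedlings were transplanted. On sowing day, the compound's emulsion, diluted in water to a set dose, was applied to the water surface. Plants grew at 25–30 °C and were scored 0–5 after three weeks.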

persian speedwell [8] = experiment: Test Example 4: herbicidal effect by soil treatment (Table 19, symbol R); format: in vivo, Persian speedwell (Veronica persica); conditions: amount of applied herbicide 320 g/ha
Procedure, shortened: as §1

green foxtail [9] = experiment: Test Example 4: herbicidal effect by soil treatment (Table 19, symbol G); format: in vivo, green foxtail (Setaria viridis); conditions: amount of applied herbicide 320 g/ha
Procedure, shortened: as §1

blackgrass [10] = experiment: Test Example 5: herbicidal effect by foliage application, plastic box (Table 20, symbol J); format: in vivo, blackgrass (Alopecurus myosuroides); conditions: foliage application, 320 g/ha, three weeks after application
Procedure, shortened: as §2

rice flat sedge = experiment: Test Example 3: herbicidal effect by foliage application, Wagner pot (Table 18, symbol E); format: in vivo, rice flat sedge (Cyperus iria); conditions: 320 g/ha
Procedure, shortened: (§4)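 Plants were sown in alluvial soil held under 0.1–0.5 cm standing water and grown 14 days in a greenhouse at 25–30 °C. An emulsifiable formulation, water-diluted to the set dose, was then sprayed onto the foliage, and effects were scored three weeks later using previously defined criteria.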

velvetleaf [11] = experiment: Test Example 4: herbicidal effect by soil treatment (Table 19, symbol M); format: in vivo, velvetleaf (Abutilon theophrasti); conditions: amount of applied herbicide 320 g/ha
Procedure, shortened: as §1

barnyard grass [12] = experiment: Test Example 5: herbicidal effect by foliage application, plastic box (Table 20, symbol H); format: in vivo, barnyard grass (Echinochloa crus-galli); conditions: foliage application, 320 g/ha, three weeks after application
Procedure, shortened: as §2

late watergrass = experiment: Test Example 1: herbicidal activity, application before weed generation under submerged conditions (Table 16, symbol A); format: in vivo, late watergrass (Echinochloa oryzicola); conditions: amount of applied herbicide 320 g/ha
Procedure, shortened: as §3

blackgrass [13] = experiment: Test Example 4: herbicidal effect by soil treatment (Table 19, symbol J); format: in vivo, blackgrass (Alopecurus myosuroides); conditions: amount of applied herbicide 320 g/ha
Procedure, shortened: as §1

lambsquarters [14] = experiment: Test Example 4: herbicidal effect by soil treatment (Table 19, symbol O); format: in vivo, lambsquarters (Chenopodium album); conditions: amount of applied herbicide 320 g/ha
Procedure, shortened: as §1

windgrass [15] = experiment: Test Example 4: herbicidal effect by soil treatment (Table 19, symbol L); format: in vivo, windgrass (Apera spica-venti); conditions: amount of applied herbicide 320 g/ha
Procedure, shortened: as §1

windgrass [16] = experiment: Test Example 5: herbicidal effect by foliage application, plastic box (Table 20, symbol L); format: in vivo, windgrass (Apera spica-venti); conditions: foliage application, 320 g/ha, three weeks after application
Procedure, shortened: as §2

velvetleaf [17] = experiment: Test Example 5: herbicidal effect by foliage application, plastic box (Table 20, symbol M); format: in vivo, velvetleaf (Abutilon theophrasti); conditions: foliage application, 320 g/ha, three weeks after application
Procedure, shortened: as §2

barnyard grass [18] = experiment: Test Example 3: herbicidal effect by foliage application, Wagner pot (Table 18, symbol H); format: in vivo, barnyard grass (Echinochloa crus-galli); conditions: 320 g/ha
Procedure, shortened: as §4

Chinese sprangletop = experiment: Test Example 3: herbicidal effect by foliage application, Wagner pot (Table 18, symbol D); format: in vivo, chinese sprangletop (Leptochloa chinensis); conditions: 320 g/ha
Procedure, shortened: as §4

chickweed = experiment: Test Example 4: herbicidal effect by soil treatment (Table 19, symbol P); format: in vivo, common chickweed (Stellaria media); conditions: amount of applied herbicide 320 g/ha
Procedure, shortened: as §1

Japanese bulrush = experiment: Test Example 1: herbicidal activity, application before weed generation under submerged conditions (Table 16, symbol B); format: in vivo, Japanese bulrush (Schoenoplectus juncoides); conditions: amount of applied herbicide 320 g/ha
Procedure, shortened: as §3

wild oat [19] = experiment: Test Example 4: herbicidal effect by soil treatment (Table 19, symbol I); format: in vivo, wild oat (Avena fatua); conditions: amount of applied herbicide 320 g/ha
Procedure, shortened: as §1

persian speedwell [20] = experiment: Test Example 5: herbicidal effect by foliage application, plastic box (Table 20, symbol R); format: in vivo, Persian speedwell (Veronica persica); conditions: foliage application, 320 g/ha, three weeks after application
Procedure, shortened: as §2

barnyard grass [21] = experiment: Test Example 4: herbicidal effect by soil treatment (Table 19, symbol H); format: in vivo, barnyard grass (Echinochloa crus-galli); conditions: amount of applied herbicide 320 g/ha
Procedure, shortened: as §1

| Compound | N: redroot pigweed, herbicidal effect grade (redroot pigweed) | herbicidal effect on green foxtail (G) (green foxtail [1]) | K: Italian ryegrass, herbicidal effect grade (Italian ryegrass [2]) | herbicidal effect on southern crabgrass (F) (southern crabgrass [3]) | F: southern crabgrass, herbicidal effect grade (southern crabgrass [4]) | herbicidal effect on Italian ryegrass (K) (Italian ryegrass [5]) | herbicidal effect on wild oat (I) (wild oat [6]) | herbicidal effect on lambsquarters (O) (lambsquarters [7]) | Herbicidal effect, C: oval-leafed pondweed (oval-leafed pondweed) | R: persian speedwell, herbicidal effect grade (persian speedwell [8]) | G: green foxtail, herbicidal effect grade (green foxtail [9]) | herbicidal effect on blackgrass (J) (blackgrass [10]) | herbicidal effect on rice flat sedge (E) (rice flat sedge) | M: velvetleaf, herbicidal effect grade (velvetleaf [11]) | herbicidal effect on barnyard grass (H) (barnyard grass [12]) | Herbicidal effect, A: late watergrass (late watergrass) | J: blackgrass, herbicidal effect grade (blackgrass [13]) | O: lambsquarters, herbicidal effect grade (lambsquarters [14]) | L: windgrass, herbicidal effect grade (windgrass [15]) | herbicidal effect on windgrass (L) (windgrass [16]) | further results |
| --- | --- | --- | --- | --- | --- | --- | --- | --- | --- | --- | --- | --- | --- | --- | --- | --- | --- | --- | --- | --- | --- |
| CCOc1cc(F)ccc1-c1sc2cc(Cl)c(Cl)cc2c1-c1c(O)c(C)nn(C)c1=O [5-053] | 3 (Herbicidal rate of 40% or more and less than 70%) | 4 (Herbicidal rate of 70% or more and less than 90%) | 0 (Herbicidal rate of 5% or less (almost no effect)) | 3 (Herbicidal rate of 40% or more and less than 70%) | 0 (Herbicidal rate of 5% or less (almost no effect)) | 0 (Herbicidal rate of 5% or less (almost no effect)) | 0 (Herbicidal rate of 5% or less (almost no effect)) | 3 (Herbicidal rate of 40% or more and less than 70%) | 0 (Herbicidal rate of 5% or less (almost no effect)) | 1 (Herbicidal rate of 5% or more and less than 20%) | 0 (Herbicidal rate of 5% or less (almost no effect)) | 0 (Herbicidal rate of 5% or less (almost no effect)) | 5 (Herbicidal rate of 90% or more (almost completely withered)) | 0 (Herbicidal rate of 5% or less (almost no effect)) | 1 (Herbicidal rate of 5% or more and less than 20%) | 0 (Herbicidal rate of 5% or less (almost no effect)) | 0 (Herbicidal rate of 5% or less (almost no effect)) | 0 (Herbicidal rate of 5% or less (almost no effect)) | 0 (Herbicidal rate of 5% or less (almost no effect)) | 3 (Herbicidal rate of 40% or more and less than 70%) | herbicidal effect on velvetleaf (M) (velvetleaf [17]): 5 (Herbicidal rate of 90% or more (almost completely withered)); herbicidal effect on barnyard grass (H) (barnyard grass [18]): 3 (Herbicidal rate of 40% or more and less than 70%); herbicidal effect on Chinese sprangletop (D) (Chinese sprangletop): 3 (Herbicidal rate of 40% or more and less than 70%); P: chickweed, herbicidal effect grade (chickweed): 0 (Herbicidal rate of 5% or less (almost no effect)); Herbicidal effect, B: Japanese bulrush (Japanese bulrush): 3 (Herbicidal rate of 40% or more and less than 70%); I: wild oat, herbicidal effect grade (wild oat [19]): 0 (Herbicidal rate of 5% or less (almost no effect)); herbicidal effect on persian speedwell (R) (persian speedwell [20]): 5 (Herbicidal rate of 90% or more (almost completely withered)); H: barnyard grass, herbicidal effect grade (barnyard grass [21]): 0 (Herbicidal rate of 5% or less (almost no effect)) |
| CCCC(=O)Oc1c(C)nn(C)c(=O)c1-c1c(-c2ccc(F)cc2OC)sc2cc(Cl)c(Cl)cc12 [5-052] | 2 (Herbicidal rate of 20% or more and less than 40%) | 3 (Herbicidal rate of 40% or more and less than 70%) | 0 (Herbicidal rate of 5% or less (almost no effect)) | 0 (Herbicidal rate of 5% or less (almost no effect)) | 0 (Herbicidal rate of 5% or less (almost no effect)) | 0 (Herbicidal rate of 5% or less (almost no effect)) | 0 (Herbicidal rate of 5% or less (almost no effect)) | 5 (Herbicidal rate of 90% or more (almost completely withered)) | 0 (Herbicidal rate of 5% or less (almost no effect)) | 0 (Herbicidal rate of 5% or less (almost no effect)) | 0 (Herbicidal rate of 5% or less (almost no effect)) | 4 (Herbicidal rate of 70% or more and less than 90%) | 5 (Herbicidal rate of 90% or more (almost completely withered)) | 0 (Herbicidal rate of 5% or less (almost no effect)) | 4 (Herbicidal rate of 70% or more and less than 90%) | 0 (Herbicidal rate of 5% or less (almost no effect)) | 0 (Herbicidal rate of 5% or less (almost no effect)) | 3 (Herbicidal rate of 40% or more and less than 70%) | 0 (Herbicidal rate of 5% or less (almost no effect)) | 4 (Herbicidal rate of 70% or more and less than 90%) | herbicidal effect on velvetleaf (M) (velvetleaf [17]): 4 (Herbicidal rate of 70% or more and less than 90%); herbicidal effect on barnyard grass (H) (barnyard grass [18]): 5 (Herbicidal rate of 90% or more (almost completely withered)); herbicidal effect on Chinese sprangletop (D) (Chinese sprangletop): 3 (Herbicidal rate of 40% or more and less than 70%); P: chickweed, herbicidal effect grade (chickweed): 3 (Herbicidal rate of 40% or more and less than 70%); Herbicidal effect, B: Japanese bulrush (Japanese bulrush): 3 (Herbicidal rate of 40% or more and less than 70%); I: wild oat, herbicidal effect grade (wild oat [19]): 0 (Herbicidal rate of 5% or less (almost no effect)); herbicidal effect on persian speedwell (R) (persian speedwell [20]): 4 (Herbicidal rate of 70% or more and less than 90%); H: barnyard grass, herbicidal effect grade (barnyard grass [21]): 0 (Herbicidal rate of 5% or less (almost no effect)) |
